Tests used:
adult human T cells = experiment: Mitochondrial staining (MitoGreen, TMRM) of adult human T cells; format: cell-based; settings: day 9; 25 μM; fold change compared to DMSO
Procedure: FIG. 7: MPC inhibition during the activation and culture of adult human T cells induces a memory phenotype. (A) Experimental design. PBMCs were isolated from adult healthy volunteers and activated with anti-CD3/CD28 beads in the presence of DMSO or UK5099 (25 μM). Beads were removed at day 5 and T cell phenotype was analysed at day 9. (B) Percentage of CD8 T cells expressing the memory marker CD62L. (C) The mean fluorescent intensity of CD62L in the respective positive population. (D) Percentage of CD8 T cells expressing markers that allows their identification as stem cell memory T cells (TSCM). (E-F) Mitochonrial mass (identified by MitoGreen staining, E) and mitochondrial membrane potential (TMRM, F), measured by flow cytometry and expressed as fold change as compared to DMSO. (G) Mitochondrial membrane potential normalized for the mitochondrial mass, expressed as the ratio of […], fold change as compared to DMSO. Pooled data from 2 independant experiments. ns: non-significant, *p<0.05, **[…], ***p<0.001. Data represents mean±s.e.m.
Heparinised blood was diluted with PBS and pipetted on top of Ficoll-paque (LymphoPrep). After centrifugation at 1800 rpm for 20 minutes at room temperature, the layer of cells at the intersection, containing the PBMCs was removed, washed and resuspended at 5×10^5 cells/ml of RPMI medium containing 8% human serum (AB serum), antibiotics, 2 mM L-Glutamine, 1% non-essential amino acids, 1 mM sodium pyruvate and 50 μM β-mercaptoethanol (all Gibco). Cells were activated with Human T-activator CD3/CD28 Dynabeads at a 1 bead/cell ratio with 150 IU/ml human recombinant IL2 and DMSO or 25 μM UK5099. Throughout the culture, cells were regularly split when necessary and beads were removed at day 5. At day 9, a fraction of the cells was stained with antibodies for flow cytometry analysis or for mitochondrial analysis.
2×10^5 cells were stained with 25 nM TMRM and 50 nM MitoGreen (Molecular Probes, Invitrogen) for 30 minutes in RPMI with 5% FCS at 37° C. […]

[1] = tested on: histone 3 (H3K4-3Me, H3K27-Ac) in CD8 T cells; experiment: Western blot of histone 3 modifications; format: cell-based, mouse
Excerpt: Mechanistically, it was hypothesized by the inventors that epigenetic processes might underlie the observed long-term memory phenotype and anti-tumor activity upon metabolic intervention with MPCi. […] Since acetyl-CoA is the acetyl donor for the acetylation of proteins, amongst which also histones, histone post-translational modifications were examined that are known to make chromatin accessible to transcription factors, a characteristic of memory T cells. […] These are marks known to open chromatin and make it accessible for transcription factor docking. […] Amongst those were Sell, Tcf7 and Ccr7, thereby correlating accessible chromatin with increased mRNA copies (FIG. 3E and see above).
Cells were lysed in RIPA lysis buffer (50 mM TrisHCl pH8, 150 mM NaCl, 1% Triton X 100, 0.5% Sodium deoxycholate, 0.1% SDS) and Halt protease/phosphatase cocktail inhibitors (Roche) and denatured by heat. Proteins were quantified by BCA protein assay kit (Thermo Scientific). Proteins were separated on 12.5% polyacrylamide gradient gels and transferred onto nitrocellulose membranes 0.2 μm (Biorad). Non-specific binding sites were blocked in milk 5% and membranes were incubated with primary antibodies (Cell Signaling). […]

With `N#CC(=Cc1cn(-c2ccccc2)c2ccccc12)C(=O)O` [UK5099, 2-cyano-3-(1-phenyl-1H-indol-3-yl)-2-propenoic acid] the “mitochondrial membrane potential (TMRM)” value (adult human T cells) was “significantly increased”, the “mitochondrial membrane potential normalized for the mitochondrial mass” value (adult human T cells) was “more polarised mitochondria” and the “total mitochondrial mass (MitoGreen)” value (adult human T cells) was “did not impact”. The “acetylation of lysine 27 on histone 3 (H3K27-Ac)” value [1] was “increase” and the “trimethylation of lysine 4 on histone 3 (H3K4-3Me)” value [1] was “increase”.

Reference: patent US20230302131A1, “MPC INHIBITION FOR PRODUCING T-CELLS WITH A MEMORY PHENOTYPE” (UNIVERSITÉ DE LAUSANNE, priority 2020, published 2023)
